From article PMC12951568, “Identifying Structural Factors Governing the Photodynamic Activity of Phthalocyanines” (Journal of Medicinal Chemistry, 2026)
“And” between values parts separate entries of the source, which are not always exact repeats. Identical values can stand only once. Like-named read-outs stand apart in the source and are kept apart here.

Assays:
[1] = determined for nonionized analogues containing free carboxylic acid; ref number not given (footnote b); cited from earlier work
[2] = cited from earlier work; for ΦΔ(EtOH): in EtOH
[3] = system: HeLa (human cervical carcinoma); conditions: 12 h incubation, Xe-lamp 15 min, λ > 570 nm, 11.2 J/cm^2; mean ± SD; determined previously under the same conditions at the same workplace and published; ref number not given; read-out: EC50 (nM) HeLa; cited from earlier work
[4] = Absorption and fluorescence emission spectra in DMF; format: physicochemical; conditions: in DMF
Protocol: (§1) An absorption spectrum of 2.475 mL of solvent (water, DMF, or PBS) was taken (i.e., absorption spectrum of baseline); then, 25 μL of stock solution was added to reach the final concentration of 1 μM in the cuvette, and the absorption and emission spectra were taken. Baseline of the solvent was subtracted from the obtained absorption spectrum to get the final absorption spectrum of the sample.

[5] = system: MCF-7 (human breast adenocarcinoma); set-up: method as in number not printed in Table 2; conditions: 12 h incubation, Xe-lamp 15 min, λ > 570 nm, 11.2 J/cm^2; mean ± SD; determined previously under the same conditions at the same workplace and published; ref number not given; cited from earlier work
[6] = Fluorescence lifetime in DMF; format: physicochemical
Source text: 1 Photophysical Data of Investigated Derivatives in DMF ^a | column: τF1/ns; τF2/ns

[7] = system: MCF-7 (human breast adenocarcinoma); assay: Photodynamic activity (phototoxicity, neutral red uptake) on MCF-7; format: cell-based; conditions: for EC50: 12 h incubation, Xe-lamp 15 min, λ > 570 nm, 11.2 J/cm^2, mean ± SD, t.w. = this work
[8] = system: HeLa (human cervical carcinoma); assay: Photodynamic activity (phototoxicity, neutral red uptake) on HeLa; format: cell-based; conditions: for EC50: 12 h incubation, Xe-lamp 15 min, λ > 570 nm, 11.2 J/cm^2, mean ± SD, t.w. = this work
Protocol: Detailed in vitro studies involving subcellular localization and determination of the EC50 in three different cell lines (human cervical carcinoma–HeLa, human breast adenocarcinoma–MCF-7, and human skin melanoma–SK-MEL-28) were performed. A broadband light source (ozone-free 450 W Xe-lamp, Newport) equipped with the long-pass filter Schott OG570 was used (12.4 mW/cm^2, 15 min, 11.2 J/cm^2).
For the cytotoxicity experiments (phototoxicity), cells were seeded at 100 μL per well into 96-well plates (TPP, Switzerland) at a density of 7.5 × 10^3 (HeLa) or 1.0 × 10^4 (MCF-7 and SK-MEL-28) cells per well. Cells were left to grow for 24 h (until they reached confluency) in a controlled environment of a CO2 incubator (37 °C, 5% CO2 atmosphere, constant high humidity). Subsequently, studied compounds were added in a wide concentration range and incubated with the cells for 12 h. Cells were washed; fresh cell culture medium was added, and the cells were irradiated using a 450 W Xe lamp (Newport, USA). The lamp was equipped with a long pass filter (Newport OG570) and an 8 cm water filter (λ > 570 nm, 12.4 mW/cm^2, 15 min, 11.2 J/cm^2). Cellular viability was assessed after an additional 24 h by the neutral red (NR; Sigma, Merck, USA) uptake assay. At least three independent experiments, each in triplicate, were performed. The soluble NR was measured at λ = 540 nm using a Tecan Infinite 200 M plate reader (Tecan, Austria). The viability of each experimental group was expressed as the percentage of the untreated cells (100% viability) after subtraction of the signal from cells treated with a lethal dose of hydrogen peroxide (0% viability). […] EC50 values were calculated, and graphs were created by using GraphPad Prism 10.3.1 (Graph Pad software, USA).

[9] = Fluorescence quantum yield, comparative method; format: physicochemical; conditions: in DMF; ZnPc as reference
Method in brief: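 ΦF determined by the comparative method against ZnPc (ΦF 0.32 in THF), using integrated emission area, absorbance at the excitation wavelength and solvent refractive index. Q-band absorbance kept below 0.05; estimated error ± 15%.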

[10] = Log P, partition between n-octanol and PBS; format: physicochemical; conditions: partition coefficient between 1-octanol and PBS
Method in brief: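 Sample from 100 μM stock added to equal volumes of n-octanol and PBS, vortexed 5 min at rt, centrifuged. Each layer diluted into DMF and emission spectra recorded; log P taken as log of octanol/PBS integrated fluorescence ratio, mean of triplicates.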

[11] = system: SK-MEL-28 (human skin melanoma); assay: Photodynamic activity (phototoxicity, neutral red uptake) on SK-MEL-28; format: cell-based; conditions: 12 h incubation, Xe-lamp 15 min, λ > 570 nm, 11.2 J/cm^2, mean ± SD, t.w. = this work
[12] = Quantum yield of singlet oxygen production, comparative method with DPBF scavenger; format: physicochemical; conditions: in DMF, ZnPc as reference
Method in brief: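 Dye added from 100 μM DMF stock (or DMF/water, water); irradiated under stirring with xenon lamp through water filter and OG530 cut-off (>523 nm). DPBF decay followed at 415 nm; ΦΔ from ln(A0/At) slopes versus reference, normalised to absorbed light summed over 523–850 nm; triplicate means, ±10% error.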

[13] = Aggregation / monomerization in aqueous media (spectra in water and PBS); format: physicochemical; conditions: 1 μM
Protocol: as §1

[14] = target: bovine serum albumin (BSA) (Bos taurus, UniProt P02769); assay: Interaction with bovine serum albumin (absorption and emission spectra in PBS); format: binding; conditions: 1 μM Pc in PBS, BSA 17.5, 35 and 100 μM
Chain of bovine serum albumin (BSA) (P02769 25-607): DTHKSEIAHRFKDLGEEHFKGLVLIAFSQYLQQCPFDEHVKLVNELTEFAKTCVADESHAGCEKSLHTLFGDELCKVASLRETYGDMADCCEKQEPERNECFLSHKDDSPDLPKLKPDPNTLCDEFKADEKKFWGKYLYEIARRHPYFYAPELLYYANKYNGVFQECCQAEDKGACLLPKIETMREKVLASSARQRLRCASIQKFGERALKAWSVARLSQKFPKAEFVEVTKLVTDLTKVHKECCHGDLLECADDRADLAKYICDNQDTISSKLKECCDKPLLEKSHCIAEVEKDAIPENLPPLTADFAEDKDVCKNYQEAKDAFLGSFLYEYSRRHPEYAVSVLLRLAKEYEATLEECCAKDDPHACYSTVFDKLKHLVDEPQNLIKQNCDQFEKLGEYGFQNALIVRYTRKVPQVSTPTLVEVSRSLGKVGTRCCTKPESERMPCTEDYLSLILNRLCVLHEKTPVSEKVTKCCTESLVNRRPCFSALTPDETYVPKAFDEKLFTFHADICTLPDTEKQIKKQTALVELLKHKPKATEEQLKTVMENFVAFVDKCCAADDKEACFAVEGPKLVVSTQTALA

Row | Compound | EC50 [3] | ε, extinction coefficient [4] | λA, absorption maximum in the Q-band [4] | λF, fluorescence emission maximum [4] | EC50 [5] | τF1, fluorescence lifetime (relative amplitude in brackets) [6] | τF2, fluorescence lifetime (relative amplitude in brackets) [6] | ΦF, fluorescence quantum yield [9] | Log P [10] | EC50 [11] | ΦΔ, quantum yield of singlet oxygen production [12] | EC50 [7] | ΦΔ(EtOH) ([2]; ref number not given) | aggregation / monomeric state [13] | other results
1 | O=C(O)c1cc(C(=O)O)cc(-c2cc3c(cc2-c2cc(C(=O)O)cc(C(=O)O)c2)C2=Nc4c5cc(-c6cc(C(=O)O)cc(C(=O)O)c6)c(-c6cc(C(=O)O)cc(C(=O)O)c6)cc5c5[n]4[Zn][n]4c(c6cc(-c7cc(C(=O)O)cc(C(=O)O)c7)c(-c7cc(C(=O)O)cc(C(=O)O)c7)cc6c4=NC4=NC(=N5)c5cc(-c6cc(C(=O)O)cc(C(=O)O)c6)c(-c6cc(C(=O)O)cc(C(=O)O)c6)cc54)=NC3=N2)c1 [A4Zn(COOH)] | – | – | – | – | – | – | – | – | – | – | – | – | – | – | ΦF, fluorescence quantum yield of nonionized analogue [1]: 0.12; ΦΔ, quantum yield of singlet oxygen production of nonionized analogue ([2]; determined for nonionized analogues containing free carboxylic acid, ref number not given (footnote b)): 0.45
2 | Cc1cc(Cn2cc[n+](C)c2)c(Oc2cc3c(cc2Oc2c(Cn4cc[n+](C)c4)cc(C)cc2Cn2cc[n+](C)c2)C2=Nc4c5cc(Oc6c(Cn7cc[n+](C)c7)cc(C)cc6Cn6cc[n+](C)c6)c(Oc6c(Cn7cc[n+](C)c7)cc(C)cc6Cn6cc[n+](C)c6)cc5c5[n]4[Zn][n]4c(c6cc(Oc7c(Cn8cc[n+](C)c8)cc(C)cc7Cn7cc[n+](C)c7)c(Oc7c(Cn8cc[n+](C)c8)cc(C)cc7Cn7cc[n+](C)c7)cc6c4=NC4=NC(=N5)c5cc(Oc6c(Cn7cc[n+](C)c7)cc(C)cc6Cn6cc[n+](C)c6)c(Oc6c(Cn7cc[n+](C)c7)cc(C)cc6Cn6cc[n+](C)c6)cc54)=NC3=N2)c(Cn2cc[n+](C)c2)c1.[I-].[I-].[I-].[I-].[I-].[I-].[I-].[I-].[I-].[I-].[I-].[I-].[I-].[I-].[I-].[I-] [C12Zn] | 37 ± 6 nM | 244 030 M^–1cm^–1 | 679 nm | 687 nm | 11 ± 3 nM | 0.62 (7%) ns | 2.23 (93%) ns | 0.20 | –2.08 | 45 ± 7 nM | 0.48 | – | – | – | increase in activity of C12Zn in comparison with C3Zn (fold) ([7]; MCF-7 cells): 2; increase in activity of C12Zn in comparison with C3Zn (fold) ([8]; HeLa cells): 1.3
3 | protoporhyrin IX [PpIX, reference compound] | – | – | 630 nm | 634 nm | – | – | – | 0.12 | 1.06 | 6200 ± 300 nM | – | 5700 ± 800 nM | 0.51–0.67 | – | EC50 [8]: 5500 ± 600 nM
4 | Cc1cc(Cn2cc[n+](C)c2)c(Oc2cc3c(cc2Oc2c(Cn4cc[n+](C)c4)cc(C)cc2Cn2cc[n+](C)c2)C2=Nc4c5ccccc5c5[n]4[Zn][n]4c(c6ccccc6c4=NC3=N2)=NC2=NC(=N5)c3ccccc32)c(Cn2cc[n+](C)c2)c1.[I-].[I-].[I-].[I-] [C3Zn] | 48 ± 19 nM | 177 190 M^–1cm^–1 | 673 nm | 682 nm | 21 ± 8 nM | – | – | 0.19 | –0.84 | 40 ± 4 nM | 0.53 | – | – | monomeric in DMF but are aggregated in PBS | –
5 | C[n+]1cccc(Oc2cc3c(cc2Oc2ccc[n+](C)c2)C2=Nc4c5cc(Oc6ccc[n+](C)c6)c(Oc6ccc[n+](C)c6)cc5c5[n]4[Zn][n]4c(c6cc(Oc7ccc[n+](C)c7)c(Oc7ccc[n+](C)c7)cc6c4=NC4=NC(=N5)c5cc(Oc6ccc[n+](C)c6)c(Oc6ccc[n+](C)c6)cc54)=NC3=N2)c1.[I-].[I-].[I-].[I-].[I-].[I-].[I-].[I-] [C6Zn] | – | 41 730 M^–1cm^–1 | 681 nm | 683 nm | – | 0.07 (3%) ns | 2.84 (97%) ns | 0.001 | –2.59 | 150 ± 50 nM | 0.02 | 110 ± 30 nM | – | did not sufficiently suppress aggregation | EC50 [8]: 58 ± 20 nM
6 | O=C([O-])c1cc(C(=O)[O-])cc(-c2cc3c(cc2-c2cc(C(=O)[O-])cc(C(=O)[O-])c2)C2=Nc4c5ccccc5c5[n]4[Zn][n]4c(c6ccccc6c4=NC3=N2)=NC2=NC(=N5)c3ccccc32)c1.[Na+].[Na+].[Na+].[Na+] [A2Zn] | 410 ± 156 nM | 152 090 M^–1cm^–1 | 677 nm | 688 nm | 584 ± 88 nM | 0.23 (16%) ns | 2.66 (84%) ns | 0.02 | –2.42 | 700 ± 50 nM | 0.22 | – | – | aggregated in water | fold higher photodynamic activity vs symmetrical hydrophilic counterparts ([8]; HeLa, unsymmetrical anionic A1Zn, A2Zn vs A3Zn, A4Zn): 25 and ~21; Interaction with BSA: disaggregation/monomerization and changes in absorption and fluorescence emission spectra [14]: partial
7 | Cc1cc(Cn2cc[n+](C)c2)c(Oc2c3c(c(C)c(C)[n+]2C)C2=NC3=Nc3c4ccccc4c4[n]3[Zn][n]3c(c5ccccc5c3=N2)=NC2=NC(=N4)c3ccccc32)c(Cn2cc[n+](C)c2)c1.[I-].[I-].[I-] [C1Zn] | 27 ± 9 nM | 100 240 M^–1cm^–1 | 689 nm | 696 nm | 35 ± 2 nM | – | – | 0.15 | 0.53 | 22 ± 3 nM | 0.66 | – | – | monomeric in DMF but are aggregated in PBS | –
8 | O=C([O-])c1c(Cl)c(Cl)c(Cl)c(Cl)c1-c1c2cc(I)c(=O)c(I)c-2oc2c(I)c([O-])c(I)cc12.[Na+].[Na+] [Rose Bengal] | – | – | – | – | – | – | – | – | – | – | – | – | – | – | ΦΔ of the reference standard ([2]; in DMF, ref number not given): 0.47
9 | C=Cc1c(C)c2cc3nc(cc4[nH]c(cc5nc(cc1[nH]2)C(C)=C5CCC(=O)O)c(CCC(=O)OC)c4C)[C@@]1(C)C3=CC=C(C(=O)OC)[C@H]1C(=O)OC [verteporfin, reference compound] | 36 ± 10 nM | – | 690 nm | 696 nm | – | 6.05 ns | – | 0.18 | – | – | – | – | 0.51–0.67 | – | EC50 ([7]; Homo sapiens, MCF7, light or radiation study): 33 ± 3 nM; logP ([10]; n-octanol/PBS buffer): 2.51; EC50 ([11]; Homo sapiens, SK-MEL-28, light or radiation study): 21 ± 3 nM
10 | temoporfin [reference compound] | 45 ± 7 nM | – | 651 nm | 656 nm | – | 9.66 ns | – | 0.24 | 1.40 | 103 ± 17 nM | – | 210 ± 74 nM | 0.51–0.67 | – | –
